# Laboratory results taken from US20260028334A1, “N-(3-(BENZO[B]THIOPHENE-2-CARBOXAMIDO)-PHENYL)-2,3-DIHYDROBENZO[B][1,4]DIOXINE-6-CARBOXAMIDE DERIVATIVES AND RELATED COMPOUNDS AS LACTATE/ATP PRODUCTION INHIBITORS FOR THE TREATMENT OF CANCER” (WMT Aktiengesellschaft, priority 2022, published 2026).
# Key:
# Assay type in all cases: cell-based
# [1] = tested on: HeLa cell line expressing GFP-LC3; test: Determination of autophagic flux; settings: HeLa GFP-LC3 reporter cells, 24 hours of treatment, flow cytometry, FIG. 6
# Excerpt: A HeLa cell line stably expressing an artificial protein construct consisting of Green Fluorescent Protein (GFP) as an N-terminal fusion to the human full-length LC3 protein, placed in front of a Red Fluorescent Protein (RFP) as an N terminal fusion to human LC3 lacking its C-terminal Glycine residue (LC3DG), was used to determine autophagic flux (Kaizuka et al., Mol. Cell (2016) 17 835-849) This construct is cleaved in cells by ATG4 at the C-terminus of the full-length LC3 protein, whereupon the GFP-LC3 fragment becomes conjugated to phosphatidyl ethanolamine. The RFP-LC3DG cannot be lipidated, and can be used as an internal reference to produce ratiometric values reporting autophagic flux. The lipidated GFP-LC3 protein becomes incorporated into the membrane of autophagosomes, and upon fusion with lysosomes, is degraded. Consequently, cells with a high autophagic flux have less GFP-LC3, whereas a low autophagic flux results in a relatively higher intracellular amount of GFP-LC3.
# Reporter cells were grown as sub-confluent cultures and test compounds were applied at various concentrations. Thapsigargin, a known inducer of autophagy, was used as a positive control. After 24 hours of treatment, a single-cell suspension was prepared by trypsinization, and the GFP fluorescence determined by flow cytometry. A minimum of 10,000 single cells were evaluated for each condition.
# [2] = tested on: HeLa, 4T1, LLC1, A549, MDA-MB-231 and MiaPaCa2 cells; test: Assay for inhibition of ATP production (FIG. 1); settings: 48 hours treatment, 1.5 to 10000 nM
# Protocol: The assay determines the amount of ATP in cells in culture.
# Cells were plated at 4,000 per well in 96-well plate in a medium of high glucose DMEM (PAN) supplemented with 10% FBS (PAN), 2 mM glutamine-alanine (PAN), 2 mM pyruvate (Sigma) and 10 mL/L penicillin-streptomycin and grown at 37° C. in 0.5% O2, 5% CO2 and 75% humidity. For hypoxia, cells were grown and treated in the Whitley H35 Hypoxystation (Don Whitley Scientific) at 37° C. in 0.5% O2, 5% CO2 and 75% humidity. The next day, cells were induced with test compounds (FIG. 1: compounds of examples 3/16, 3/8, 10 at 10000, 3333, 1111, 370, 123, 41, 14, 5 and 1.5 nM; FIGS. 8A and 8B: compounds of example 3/19, 30 and 30/2 at 10000, 3333, 1111, 370, 123, 41, 14, 5 and 1.5 nM), as well as with vehicle (DMSO) only, for 48 hours. After this time, the medium was removed from the cells and intracellular ATP levels were determined using the Promega CellTiter-Glo 2.0 assay protocol (Promega, G9241). To estimate the effect of compounds on the ATP production, sample values were compared to the values of DMSO only. IC50 values were generated by plotting the luciferase counts against compound concentration.
# p70-S6K (Thr389) = p70-S6K (Thr389) (Homo sapiens (Human), UniProt P23443); test: Western Blot analysis of p70-S6K phosphorylation; settings: HeLa cells, 24 hours, 10, 30 and 100 nM, also with Bafilomycin A, normoxic condition, FIG. 5
# Protocol: Western Blot analysis was used to detect amounts of specific protein in differently treated cells. Proteins are separated by size, transferred onto a nitrocellulose membrane and incubated with protein specific antibodies. The density of the observed band is proportional to the amount of the specific protein inside the cell.
# Cells were plated at 4×10^6 (for hypoxia) or 3×10^6 (for normoxia) cells per […] plate in medium of high glucose DMEM (PAN) supplemented with 10% FBS (PAN), 2 mM glutamine-alanine (PAN), 2 mM pyruvate (Sigma) and 10 ml/L penicillin-streptomycin (PAN), and grown at 37° C. in 0.5% O2, 5% CO2 and 75% humidity. For hypoxia, cells were grown and treated in the Whitley H35 Hypoxystation (Don Whitley Scientific) at 37° C. in 0.5% O2, 5% CO2 and 75% humidity. Next day, the cells were treated with test compounds (FIG. 4: compounds of example 3/8 and 10 at concentrations 0.1, 0.3 and 1 μM, Bafilomycin A at 20 nM; FIG. 5: compounds of example 3/16, 3/8 and 10 at concentrations 10, 30 and 100 nM, Bafilomycin A at 20 nM), as well as with vehicle (DMSO) only, for 24 h. […] Protein concentration of the sample was measured using the DC Protein Assay Kit (Biorad, 5000112), 22 μg of protein extract per well was loaded onto a precast SDS page gel (Biorad, 1704273). […] The chemiluminescence was measured using chemiluminescent substrate (#34580, Thermo Scientific).
p70-S6K phosphorylation (Thr389) (p70-S6K (Thr389)),Structure (SMILES),autophagic flux [1],ATP production level [2]
dose-dependent induction,O=C(Nc1ccc(F)c(NC(=O)c2cc3ccc(OCCCN4CCCC4)cc3s2)c1)c1ccc2c(c1)OCCO2 [3/8],significantly enhance,dose-dependent reduction
dose-dependent induction,Cc1ccc(NC(=O)c2ccc3c(c2)OCCO3)cc1NC(=O)c1cc2cccnc2s1 [3/16],significantly enhance,dose-dependent reduction
